# Test results published in publication PMC8318231, “Rate-of-Kill (RoK) assays to triage large compound sets for Chagas disease drug discovery: Application to GSK Chagas Box” (PLoS Neglected Tropical Diseases, 2021).
# Test system: H9c2 (rat cardiomyocytes)
# Assay: RoK assay, number of host cells nuclei (drug-related cytotoxicity, H9c2 output, Cmin_Tox)
# Details: H9c2 host cells
# Procedure: For this high-content intracellular imaging assay, H9c2 cells were seeded in 225 cm^2 T- FLASK in DMEM with 10% FBS for 4 h to allow attachment. T. cruzi trypomastigotes, collected at days 5 to 8 after infection from LLC-MK2 parasite infected cultures, were allowed to swim out for 4 h at 37°C from a centrifuged pellet (1,600 x g / 10 min). Trypomastigotes were then collected and counted in a CASY Cell Counter using the 60 μm capillary. […] Cells were washed once with PBS before incubation of the infected H9c2 monolayer with trypsin (Life-Technologies) to detach cells from the flask. Cells were counted in a CASY Cell Counter, using the 150 μm capillary, and their density set at 5 x 10^4 cells/mL in supplemented DMEM. Infected H9c2 were dispensed into 384-well plates at 50 μL per well using a Multidrop Combi dispenser. Control wells used to determine a 100% parasitic growth (full 6th column of each plate) were left untreated, whereas not infected cells were added in the control wells used as 0% parasite growth (or 100% parasite growth inhibition; full 18th column of each plate). The four plates corresponding to each RoK assay were predispensed for the same mother plate. […] Cultures were then fixed and stained with 50 μL per well of a PBS solution containing 4% formaldehyde and 2 μM DRAQ5 DNA dye (BioStatus, UK). Then plates were read in a PerkinElmer Opera Phenix using a 20x objective, 3 fields per well. DRAQ5 signal was detected using 640 nm excitation laser and a 690/50 nm emission detection filter. Automated image analysis was performed with a script developed on Acapella High Content Imaging and Analysis Software (PerkinElmer). Two outputs were provided for each sample well: (1) number of host cells nuclei to determine drug-related cytotoxicity (aka H9c2) and (2) number of amastigotes per cell as infection level measurement (aka AM/CELL). Each output is plotted as a time course for each compound at every concentration. This assay was adapted from Alonso-Padilla et al. and Peña et al..
# • ME (Maximum Effect) is the maximum percentage of parasite burden reduction reached by any compound concentration. Compounds that decrease the initial parasite load will show a positive value of ME, whereas compounds that allow the progression of infection will render a negative ME value. […] It is calculated for the MCC50 (t50%_MCC50) and for the maximum concentration (t50%_Cmax). […] The value of this parameter is not either interpolated or extrapolated, and it refers to the first experimental time-course point at which a 50% of effect is reached or exceeded. • tlag defines the time elapsed for one particular concentration to reduce parasite burden between two consecutive points at any moment of the time course. It is calculated for the MCC50 (tlag_MCC50) and for the maximum concentration (tlag_Cmax). The value of this parameter is not either interpolated or extrapolated, and it refers to the first experimental time-course point of a positive slope in the normalised plot (i.e. %Cidal_Response). • Cmin_Tox (Minimal CytoToxic Concentration) is the lowest compound concentration that is reducing the number of host mammalian cells below 50% of initial cell density. Cytotoxic compounds may mislead a bona fide antiparasitic action. Therefore, this descriptor is used to flag this kind of compounds and warn about the genuine meaning of the rest of descriptors.
row,Compound,Cmin_Tox [µM]
1,CC(CNS(=O)(=O)c1ccc(OC(F)F)cc1)c1ccc(NC(=O)c2ccncc2)cc1 (stereo not drawn) [TCMDC-143535],>50
2,Cn1cc(CN2CCN(c3ccc4c(c3)CCN(C(=O)[C@H]3C[C@@H]3c3ccccc3)CC4)CC2)cn1 [TCMDC-143537],>50
3,O=C(CN(c1cccc(C(F)(F)F)c1)S(=O)(=O)c1ccc(Cl)cc1)NCc1ccc(F)c(F)c1 [TCMDC-143548],>50
4,COc1ccc(S(=O)(=O)NCc2ccc(-c3ccc(CN(C)CCO)cc3)cc2)cc1.O=C(O)C(F)(F)F [TCMDC-143549],>50
5,CCCN1CCN(Cc2ccc(S(=O)(=O)Nc3cccc(C)c3)cc2)CC1.O=C(O)C(F)(F)F.O=C(O)C(F)(F)F [TCMDC-143550],>50
6,O=C(CSc1ccc(-c2ccccn2)nn1)Nc1ccc(Cl)cc1 [TCMDC-143552],>50
7,c1ccc2c(CCOc3nccnc3-c3ccncc3)c[nH]c2c1 [TCMDC-143562],>50
8,O=C(Nc1ccc(Br)c(Cl)c1)Nc1ccc2c(c1)OCO2 [TCMDC-143588],>50
9,COc1cccc(C(=O)[C@H]2C[C@@H]2CN(Cc2cccnc2)Cc2cccnc2)c1 [TCMDC-143593],>50
10,Clc1ccc(Sc2cnccc2N2CCOCC2)cc1 [TCMDC-143602],>50
11,N#Cc1cc(N2CCCC2=O)ccc1Sc1ccccc1CO [TCMDC-143604],>50
12,CCCc1nc2nc(N)nc(N)c2cc1CC [TCMDC-143606],>50
13,COc1ccccc1-c1c(C)[nH]c2nc(N)nc(C)c12 [TCMDC-143610],>50
14,CCCCNc1nccc(-c2c(-c3ccc(F)cc3)nn3c(N4CCOCC4)cccc23)n1 [TCMDC-143617],>50
15,CN(C)CCOc1ccc(N2CCN(S(=O)(=O)c3ccc(Cl)cc3)CC2)cc1 [TCMDC-143622],>50
16,CN(C)Cc1ccc(N2CCC(NS(=O)(=O)c3ccc(Cl)cc3)CC2)cc1 [TCMDC-143623],25.3
17,O=c1[nH]ccc2ccc(-c3ccncc3)cc12 [TCMDC-143631],>50
18,O=C(O)/C=C\C(=O)O.O=C(c1ccc(OCCCc2cnc[nH]2)cc1)C1CC1 [TCMDC-143632],>50
